Test results: US20220313651A1, “INHIBITORS OF ZIKA VIRUS INFECTION” (priority 2019, published 2022)

Key:
[1] = test system: ZIKV PAN2016 strain; assay: Combinatorial effects of gossypol with other Z-medicaments, ZIKV PAN2016; assay type: cell-based, Zika virus (ZIKV); settings: ZIKV PAN2016; for Fold of Enhancement: IC50 alone / in mixture; for CI (combination index): named compound in combination with gossypol
Procedure: (§1) The unbound viruses and Z-medicaments were removed, and the cells were cultured at 37° C. for 4-5 days, followed by staining with 0.5% crystal violet. The Z-medicaments without combinations were used as controls. The IC50 of the Z-medicaments was calculated as described above.
(§2) The Z-medicaments were then analyzed for synergistic effects based on the combination index (CI) and IC50 values using the CalcuSyn program. Specifically, CI values <1 and >1 indicate synergy and antagonism, respectively. Synergy was further identified as five different categories: CI values <0.1, 0.1-0.3, 0.3-0.7, 0.7-0.85, and 0.85-0.90 indicate very strong synergism, strong synergism, synergism, moderate synergism, and slight synergism, respectively. Fold enhancement of anti-ZIKV potency is expressed as the ratio of molar concentrations of the Z-medicaments tested alone and in the mixture.

[2] = test system: ZIKV FLR strain; assay: Combinatorial effects of gossypol with other Z-medicaments, ZIKV FLR; assay type: cell-based, Zika virus (ZIKV); settings: ZIKV FLR; for Fold of Enhancement: IC50 alone / in mixture; for CI (combination index): named compound in combination with gossypol
Procedure: as §1, §2

[3] = test system: ZIKV PRVABC59 strain; assay: Combinatorial effects of gossypol with other Z-medicaments, ZIKV PRVABC59; assay type: cell-based, Zika virus (ZIKV); settings: for Fold of Enhancement: IC50 alone / in mixture; for CI (combination index): named compound in combination with gossypol
Procedure: as §1, §2

[4] = test system: Vero E6 cells; assay: in vitro; settings: Vero E6 cells, 3 days, CCK8; Table 1
Procedure: The cytotoxicity of the Z-medicaments in Vero E6 (ZIKV target cells) was evaluated using the Cell Counting Kit-8 (CCK8).
(§3) Briefly, compounds at 2-fold serial dilutions were added to cells (2.0×10^4/well) pre-seeded in 96-well plates. The cells were cultured at 37° C. for 3 days, and incubated with CCK8 solution, followed by measurement of absorbance at 450 nm (A450 value) using microplate reader.

[5] = test system: LLC-MK2 cells; settings: 3 days, CCK8, Table 5
Procedure: The cytotoxicity of Z-medicaments in LLC-MK2 (DENV-1-4 target cells) was detected using Cell Counting Kit-8 (CCK8). […] The cells were then incubated with CCK8 solution, and measured absorbance at 450 nm (A450 value) using a microplate reader.
as §3

Compound | Fold of Enhancement ([1]; gossypol + conessine) | CI (combination index) [1] | Fold of Enhancement ([2]; gossypol + conessine) | CI (combination index) [2] | Fold of Enhancement ([3]; gossypol + conessine) | CI (combination index) [3] | CC50 [4] | Fold of Enhancement ([1]; gossypol + curcumin) | Fold of Enhancement ([2]; gossypol + curcumin) | Fold of Enhancement ([3]; gossypol + curcumin) | CC50 [5]
C[C@H]1[C@H]2CC[C@H]3[C@@H]4CC=C5C[C@@H](N(C)C)CC[C@]5(C)[C@H]4CC[C@]23CN1C [Conessine, conessine] | 4.44 | 0.44 | 2.13 | 0.85 | 7.29 | 0.28 | – | – | – | – | –
COc1cc(/C=C/C(=O)CC(=O)/C=C/c2ccc(O)c(OC)c2)ccc1O [Curcumin, curcumin] | – | 0.52 | – | 0.49 | – | 0.30 | 52.86 ± 0.52 µM | 3.60 | 3.84 | 6.46 | 59.4 ± 1.18 µM
